This is an account of results in patent US12583867B2, “Pyridone derivative crystal form and preparation method and application therefor” (priority 2019, dated 2026).

In data set [1] the test system is influenza A virus (H1N1, A/WSN/33). Kind of data set: Efficacy on mice, IAV mouse infection model. It counts as in vivo, BALB/c mice. As to conditions: 15 mpk orally twice a day; for Body weight change: infected mice, during the experiment; for Mean difference of virus titer compared with the menstruum group: mice, 5th day after virus infection. An excerpt:
Female BALB/c mice were inoculated with influenza A virus (H1N1, A/WSN/33) by intranasal administration to establish an IAV mouse infection model. Menstruum, the compound of formula (1) (15 mpk) or oseltamivir phosphate (15 mpk) were orally administered twice a day. Animal weight and survival status were monitored daily during the test, and on the 5th day, some animals were sacrificed to take lung tissue for virus titer detection, and the remaining mice were used for survival rate monitoring. The in vivo anti-influenza virus efficacy of the test compound was determined by virus titer in lung tissue, mouse body weight change and survival rate.

The nature of data set [2]: Hygroscopicity by dynamic vapour sorption (DVS). It counts as physicochemical. On the procedure: • Instrument model: Bruker D8 Venture single-crystal diffractometer • Light source: Mo target • X-ray: Mo—K (=0.71073 Å) • Detector: CMOS based detector • Resolution: 0.84 Å • Current and voltage: 50 kV, […] 2. X-Ray Powder Diffraction (XRPD) • Instrument model: PANalytical X'Pert3 Power • X-ray: Cu, Kα, Kα1 (Å): 1.540598; Kα2 (Å): 1.544426 • X-ray tube setting: 45 kV, 40 mA • Divergence slit: 1/8° • Scan pattern: continuous • Scanning range (2θ): 3°-40° • Scan step size (2θ): 0.0263° 3. Differential Scanning Calorimetry (DSC) • Instrument model: TA Q2000/2500 differential scanning calorimeter • Heating rate: 10° C./min • Temperature range: 25° C. to setting end-point temperature • Shielding gas: nitrogen 4. Thermogravimetric Analysis (TGA) • Instrument model: TA Q5000/5500 thermogravimetric analyzer • Heating rate: 10° C./min • Temperature range: room temperature to setting end-point temperature • Shielding gas: nitrogen 5. Dynamic Vapour Sorption (DVS) • Instrument model: SMS DVS Intrinsic vapour sorption analyzer • Temperature: 25° C. • RH range: 0% RH-95% RH • Shielding gas: nitrogen

Data set [3] is described as follows: Solid state stability of the crystal form (XRPD, HPLC). It counts as physicochemical. The procedure: The crystal form F samples of the compound of formula (1) were placed at 60° C. for 30 days, at 25° C./92.5% RH for 30 days, and exposed to light for 15 days, respectively. The physical and chemical stability of the samples were tested by XRPD and HPLC.
The nature of data set [4]: Mechanical stability: XRPD before and after jet milling. Particulars: jet milled to D90≤10 μm. The data set is classed as physicochemical. The text has this:
In addition, 224.90 g of the above compound of the formula (1) was jet milled (feed pressure 0.4 to 0.5 MPa, milling pressure 0.18 to 0.22 MPa) to give 212.00 g sample with a particle size of D90≤10 μm.

[5] abbreviates: Light (white light 4500 Lux, ultraviolet light 90 μw/cm^2)/15 days.

As to `COC(=O)OCOc1c2n(ccc1=O)N([C@@H]1c3ccccc3SCc3c1ccc(F)c3F)[C@@H]1COC3(CC3)CN1C2=O` [Compound of formula (1), (((R)-12′-((S)-7,8-difluoro-6,11-dihydrodibenzo[b,e]thiepin-11-yl)-6′,8′-dioxo-6′,8′,12′,12a′-tetrahydro-1′H,4′H-spiro[cyclopropane-1,3′-[1,4]oxazino[3,4-c]pyrido[2,1-f][1,2,4]triazin]-7′-yl)oxy)methyl methyl carbonate], in data set [1], the Body weight change entry is listed as “remained stable during the experiment, had no significant decline” and the “Mean difference of virus titer compared with the menstruum group” value was 3.92 Log10 (plaques number/gram of.

`CCOC(=O)C1=C[C@@H](OC(CC)CC)[C@H](NC(C)=O)[C@@H](N)C1` [Oseltamivir phosphate, oseltamivir phosphate, reference compound]: in data set [1], the Body weight change result is recorded as “remained stable during the experiment, had no significant decline” and the “Mean difference of virus titer compared with the menstruum group” value was 3.46 Log10 (plaques number/gram of.

As for `COC(=O)OCOc1c2n(ccc1=O)N([C@@H]1c3ccccc3SCc3c1ccc(F)c3F)[C@@H]1COC3(CC3)CN1C2=O` [crystal form F], the “Crystal form before and after the DVS test (XRPD)” value in data set [2] (DVS at 25° C.) was “did not change”. The molecule also had a Moisture-absorption weight gain in data set [2] (DVS, 25° C./80% RH) of 0.10%. Also, in data set [3] (25° C./92.5% RH/30 days), the Appearance and character entry is listed as “White”; the Crystal form change entry was “No”; the “Purity (area %)” value is recorded as 99.0 area %; the “Purity/initial (%)” value was 100.4%. In addition, in data set [3] (60° C./30 days), the Appearance and character result was “White”; the Crystal form change result was “No”; the “Purity (area %)” value came out at 98.7 area %; the “Purity/initial (%)” value turned out to be 100.1%. Besides, in data set [3] (Initial), the Appearance and character entry was “White”; the Crystal form change result is “No”; the “Purity (area %)” value was determined as 98.6 area %. Also, in data set [3] (setting [5]), the Appearance and character result is “White”; the Crystal form change result was “No”; the “Purity (area %)” value came to 98.5 area %; the “Purity/initial (%)” value worked out at 99.9%. Also, the “Crystal form before and after milling (XRPD)” value in data set [4] is “does not change”.
